Experimental data taken from paper PMC2365101, “Anti-Inflammatory Activity of (Polyphenolic)-Sulfonates and Their Sodium Salts in Rodents” (Metal-Based Drugs, 1998).

How the values were obtained:
[1] = tested on: IL-8 high affinity receptor on chinese hamster ovarian carcinoma K-1 cells; test: 125I-IL-8 high affinity binding to chinese hamster ovarian carcinoma K-1 cells; conditions: for 125I-IL-8 binding, Percent of Control: N=6
[2] = tested on: RPMI 1788 leukocytes adhesion to L929 fibroblasts; test: Adhesion of human leukocytes RPMI-1788 to confluent L929 fibroblasts; type: cell-based; conditions: for Adhesion, Percent of Control: N=6; for reducing the adhesion of human leukocytes / reducing significantly the adhesion of human leukocytes: 5 to 50 μM; for reducing the adhesion of human leukocytes: at 2 and 5 hr; for reducing significantly the adhesion of human leukocytes: at 60 and 90 min
[3] = target: T1, IL-2 high affinity receptor on HUT78 T lymphoma cell membrane (Homo sapiens, UniProt P01589+P14784); test: 125I-IL-2 high affinity binding to HuT78 T lymphoma cells; conditions: for 125I-IL-2 binding, Percent of Control: N=6; for reduction of IL-2 high affinity binding: 5 hr
T1 construct: host or cells: HuT78 T lymphoma cells
T1 sequence (P01589 22-272): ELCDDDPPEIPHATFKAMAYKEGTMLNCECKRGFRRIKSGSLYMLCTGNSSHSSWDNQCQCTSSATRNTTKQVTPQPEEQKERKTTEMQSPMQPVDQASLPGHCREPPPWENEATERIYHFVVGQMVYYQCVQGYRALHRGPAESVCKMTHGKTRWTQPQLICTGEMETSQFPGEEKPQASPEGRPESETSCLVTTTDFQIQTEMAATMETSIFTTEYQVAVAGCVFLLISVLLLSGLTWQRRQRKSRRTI
T1 sequence (P14784 27-551): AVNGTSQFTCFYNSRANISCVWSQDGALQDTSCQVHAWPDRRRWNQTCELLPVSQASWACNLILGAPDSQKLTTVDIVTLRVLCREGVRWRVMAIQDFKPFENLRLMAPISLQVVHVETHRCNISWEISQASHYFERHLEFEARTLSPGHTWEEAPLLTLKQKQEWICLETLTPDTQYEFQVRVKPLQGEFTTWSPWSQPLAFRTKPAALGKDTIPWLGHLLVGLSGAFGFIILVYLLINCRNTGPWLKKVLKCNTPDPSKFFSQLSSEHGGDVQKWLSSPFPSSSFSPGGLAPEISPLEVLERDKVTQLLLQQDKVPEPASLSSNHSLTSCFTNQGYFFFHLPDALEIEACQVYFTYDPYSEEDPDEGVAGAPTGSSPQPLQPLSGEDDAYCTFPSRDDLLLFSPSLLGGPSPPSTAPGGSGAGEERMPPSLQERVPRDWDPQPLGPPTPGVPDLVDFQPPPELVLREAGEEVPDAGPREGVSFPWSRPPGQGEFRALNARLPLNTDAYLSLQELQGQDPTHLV

Row | Molecule | 125I-IL-8 binding, Percent of Control ([1]; 50 μM, 5 Hours) | 125I-IL-8 binding, Percent of Control ([1]; 50 μM, 24 Hours) | 125I-IL-8 binding, Percent of Control ([1]; 100 μM, 24 Hours) | Adhesion, Percent of Control ([2]; 5 μM, 60 min) | Adhesion, Percent of Control ([2]; 5 μM, 90 min) | Adhesion, Percent of Control ([2]; 12.5 μM, 2 Hours) | Adhesion, Percent of Control ([2]; 12.5 μM, 5 Hours) | Adhesion, Percent of Control ([2]; 12.5 μM, 60 min) | Adhesion, Percent of Control ([2]; 12.5 μM, 90 min) | Adhesion, Percent of Control ([2]; 25 μM, 2 Hours) | Adhesion, Percent of Control ([2]; 50 μM, 2 Hours) | 125I-IL-2 binding, Percent of Control ([3]; 5 μM, 2 Hours) | 125I-IL-2 binding, Percent of Control ([3]; 5 μM, 5 Hours) | 125I-IL-2 binding, Percent of Control ([3]; 12.5 μM, 2 Hours) | 125I-IL-2 binding, Percent of Control ([3]; 12.5 μM, 5 Hours) | 125I-IL-2 binding, Percent of Control ([3]; 25 μM, 2 Hours) | 125I-IL-2 binding, Percent of Control ([3]; 25 μM, 5 Hours) | 125I-IL-2 binding, Percent of Control ([3]; 50 μM, 2 Hours) | 125I-IL-2 binding, Percent of Control ([3]; 50 μM, 5 Hours) | reduction of IL-2 high affinity binding ([3]; 50 μM) [%] | other results
1 | COc1c2cc(S(=O)(=O)[O-])cc1Cc1cc(S(=O)(=O)[O-])cc(c1OC)Cc1cc(S(=O)(=O)[O-])cc(c1OC)Cc1cc(S(=O)(=O)[O-])cc(c1OC)Cc1cc(S(=O)(=O)[O-])cc(c1OC)Cc1cc(S(=O)(=O)[O-])cc(c1OC)C2.[Na+].[Na+].[Na+].[Na+].[Na+].[Na+] [Compound 6] | 54 + 5% of Control | 65 + 7% of Control | 55 + 4% of Control | 46 + 4% of Control | 62 + 5% of Control | 125 + 5% of Control | 92 + 4% of Control | 49 + 6% of Control | 55 + 6% of Control | 100 + 6% of Control | 108 + 6% of Control | 142 + 6% of Control | 100 + 6% of Control | 115 + 5% of Control | 92 + 6% of Control | 85 + 5% of Control | 78 + 5% of Control | 81 + 4% of Control | 55 + 4% of Control | 45 | reduction of IL-8 high affinity binding ([1]; at 5 hr and 24 hr): ~45%; Adhesion, Percent of Control ([2]; 25 μM, 5 Hours): 95 + 5% of Control; Adhesion, Percent of Control ([2]; 25 μM, 60 min): 30 + 3% of Control; Adhesion, Percent of Control ([2]; 25 μM, 90 min): 71 + 5% of Control; Adhesion, Percent of Control ([2]; 50 μM, 5 Hours): 88+ 7% of Control; Adhesion, Percent of Control ([2]; 50 μM, 60 min): 41 + 5% of Control; reducing the adhesion of human leukocytes [2]: not effective; reducing significantly the adhesion of human leukocytes [2]: effective
2 | CC(=O)Oc1c2cc(S(=O)(=O)[O-])cc1Cc1cc(S(=O)(=O)[O-])cc(c1OC(C)=O)Cc1cc(S(=O)(=O)[O-])cc(c1OC(C)=O)Cc1cc(S(=O)(=O)[O-])cc(c1OC(C)=O)Cc1cc(S(=O)(=O)[O-])cc(c1OC(C)=O)Cc1cc(S(=O)(=O)[O-])cc(c1OC(C)=O)Cc1cc(S(=O)(=O)[O-])cc(c1OC(C)=O)Cc1cc(S(=O)(=O)[O-])cc(c1OC(C)=O)C2.[Na+].[Na+].[Na+].[Na+].[Na+].[Na+].[Na+].[Na+] [Compound 8] | 79 + 4% of Control | 58 + 7% of Control | 51 + 6% of Control | 49 + 7% of Control | 108+6% of Control |  |  | 40+ 5% of Control | 65 +6% of Control | 108+4% of Control | 116+6% of Control | 138 + 5% of Control | 85 + 5% of Control | 215 + 7% of Control | 78 + 4% of Control | 88 + 6% of Control | 59 + 5% of Control | 38 + 4% of Control | 55 + 6% of Control | 45 | reduction of IL-8 high affinity binding ([1]; 50 μM, 5 hr): 21-23%; reduction of IL-8 high affinity binding ([1]; 24 hr): greater than 40%; Adhesion, Percent of Control ([2]; 25 μM, 60 min): 41 +5% of Control; Adhesion, Percent of Control ([2]; 25 μM, 90 min): 63+3% of Control; Adhesion, Percent of Control ([2]; 50 μM, 60 min): 55+4% of Control; reducing the adhesion of human leukocytes [2]: not effective; reducing significantly the adhesion of human leukocytes [2]: effective; reduction of IL-2 binding ([3]; 50 μM, 2 hr): 62%
3 | Pentosan sulfate [Pentosan polysulfate, reference compound] | 79 + 6% of Control | 51 + 6% of Control | 47 + 8% of Control |  |  | 83+5% of Control | 82+5% of Control |  |  | 116+6% of Control | 147+6% of Control | 362 + 9% of Control | 148 + 5% of Control | 188 + 5% of Control | 89 + 6% of Control | 123 + 7% of Control | 81 + 6% of Control | 104 + 6% of Control | 55 + 4% of Control | 45 | reduction of IL-8 high affinity binding ([1]; 50 μM, 5 hr): 21-23%; reduction of IL-8 high affinity binding ([1]; 24 hr): greater than 40%; Adhesion, Percent of Control ([2]; 25 μM, 5 Hours): 82+6% of Control
